Patent publication US11923581B2, “Aqueous redox flow battery electrolytes with high chemical and electrochemical stability, high water solubility, low membrane permeability” (President and Fellows of Harvard College, priority 2016, dated 2024)

Experiments:
[1] = Cyclic voltammetry, reduction potential; format: physicochemical
Solubility in water = conditions: 25° C.
physchem = conditions: 25 °C, thermodynamic from solid
[2] = cited from earlier work

In the case of `C[N+](C)(C)C[c-]1cccc1.F[B-](F)(F)F.[Fe+2].c1cc[cH-]c1` [Compound 3], the “reduction potential vs. RHE” value ([1]; pH 7, converted from the measured potential) is reported as “+1.05 V”, the “reduction potential vs. Ag/AgCl reference electrode” value ([1]; pH 7, cyclic voltammetry) is reported as “+0.43 V” and the water solubility (Solubility in water) is reported as roughly 400 mM.

For `C[N+](C)(C)CCC[c-]1cccc1.C[N+](C)(C)CCC[c-]1cccc1.[Cl-].[Cl-].[Fe+2]` [Compound 2, bis((3-trimethylammonio)propyl)ferrocene dichloride], the “reduction potential vs. Ag/AgCl reference electrode” value ([1]; pH 7) was “+0.21 V” and the “reduction potential vs. RHE” value ([1]; pH 7) was “+0.83 V”.

In the case of `C[N+](C)(C)CCC[n+]1ccc(-c2cc[n+](CCC[N+](C)(C)C)cc2)cc1` [Compound 1, (3-trimethylammonio)propyl viologen tetrachloride], the “reduction potential vs. Ag/AgCl reference electrode” value ([1]; pH 7) is reported as −0.55 V, the “reduction potential vs. RHE” value ([1]; pH 7) is reported as “+0.07 V” and the solubility (physchem; pH 7, water) is reported as 2000 mM. It also gave a solubility (physchem; water) of 2000 mM.

In the case of `C[n+]1ccc(-c2cc[n+](C)cc2)cc1` [MV dichloride, methyl viologen], the “solubility in water at pH 7” value [2] is given as 3.0 M.

In the case of `C[N+](C)(C)CCCNC(=O)[c-]1cccc1.[Cl-].[Fe+2].c1cc[cH-]c1` [Compound 7, N-((3-trimethylammonio)propyl) ferrocenecarboxamide chloride], the “reduction potential higher than that of 2” value ([1]; pH 7) is reported as roughly 240 mV, the “reduction potential vs SHE” value ([1]; pH 7) is reported as “+0.63 V” and the “reduction potential vs. RHE” value ([1]; pH 7) is reported as “+1.04 V”.
